Reference: patent US20240124442A1, “TRICYCLIC-AMIDO-BICYCLIC PRMT5 INHIBITORS” (AMGEN INC., priority 2021, published 2024)
pIC50: −log10 of the molar value.

Key:
[1] = system: HCT116 WT cells; assay: HCT116 WT (parent) cell line proliferation / cell viability (CellTiter-Glo, 6 days); type: cell-based; settings: Homo sapiens, HCT-116, 144 h, 6 days treatment
Experimental: (§1) HCT116 Proliferation Activity
(§2) To assess selective anti-proliferative activity of compounds of the invention in cells that have loss expression of MTAP, an HCT-116 isogenic cell line pair was utilized where one cell line was engineered to genetically knockout both MTAP alleles. Cell viability was then assessed in both the parent HCT-116 cell line and the MTAP null cell line after 6 days of treatment with compounds of the present invention. Selective anti-proliferative activity in the MTAP null cell line indicates MTA-cooperative inhibition of PRMT5 and ability to inhibit growth of cancer cells that have loss of MTAP.
(§3) HCT116 MTAP null and WT cells were seeded in 96-well tissue culture plates in RPMI 1640 media+10% fetal bovine serum. Plates were incubated overnight at 37° C. and 5% CO2. Cells were then treated with an 8- or 9-point serial dilution of compound, using a top concentration of 1, or 10 μM, 1:3 serial dilution steps and, a DMSO-only control. Cells were incubated in the presence of drug for 6 days. Effects on cell viability were measured with the CellTiter-Glo® Luminescent Cell Viability Assay (Promega) per manufacturer's recommendation. Assay plates were read on an EnVision™ Multilabel Reader using the Ultra-Sensitive luminescence module. IC50 values were calculated with GraphPad Prism v 5.01 using symmetrical sigmoidal dose-response least squares fit with Hill slope fixed to −1 and top constrain to 100% or GeneData Screener using a 4-parameter logistic model to fit dose response curves.
(§4) Alternatively, compounds could be assayed with a 384 well plate format:
(§5) Compounds were pre-spotted into 384 well plates with a 22-point serial dilution of compound, using a top concentration of 10 or 50 μM, 1:2 serial dilution steps and, a DMSO-only control. HCT116 MTAP null and WT cells were then seeded as above and after 6 days effects on cell viability were measured with the CellTiter-Glo® Luminescent Cell Viability Assay (Promega). Assay plates were read as above and IC50 values were calculated with GeneData Screener using a 4-parameter logistic model to fit dose response curves. The reported IC50 represents the value where the curve transits 50% of control.

[2] = system: HCT116 MTAP null cells; assay: HCT116 MTAP null cell line proliferation / cell viability (CellTiter-Glo, 6 days); type: cell-based; settings: 144 h; HCT116 MTAP null cells, 6 days treatment, CellTiter-Glo cell viability; read-out: HCT-116 MTAP null IC50
Experimental: as §1, §2, §3, §4, §5

With CN(C(=O)c1cc2c(cc1F)nc(N)c1cnn(C)c12)[C@@H]1COCc2nc(C(F)(F)F)ccc21 [Example 507, 4-amino-7-fluoro-N,1-dimethyl-N-((5S)-2-(trifluoromethyl)-5,8-dihydro-6H-pyrano[3,4-b]pyridin-5-yl)-1H-pyrazolo[4,3-c]quinoline-8-carboxamide] the pIC50 [1] was 6.79 and the pIC50 [2] was 8.10.
Cn1ncc2c3cc(C(=O)N(CC4CC4)[C@@H]4COCc5nc(C(F)(F)F)ccc54)c(F)cc3nc(N)c21 (single isomer, unassigned) [Example 607] showed a pIC50 [1] of 6.08 and a pIC50 [2] of 7.68.
Molecule CN(C(=O)c1cc2c3c(c(N)nc2cc1F)COC3)[C@@H]1COc2cc(C(F)(F)F)cc(F)c21 (single isomer, unassigned) [Example 355] has a pIC50 [1] of 5.93 and a pIC50 [2] of 7.59.
Work on CCN(C(=O)c1ccc2nc(N)c3cnn(C)c3c2c1)[C@H]1COCc2nc(C(F)(F)F)ccc21 [Example 502, 4-amino-N-ethyl-1-methyl-N-((5R)-2-(trifluoromethyl)-5,8-dihydro-6H-pyrano[3,4-b]pyridin-5-yl)-1H-pyrazolo[4,3-c]quinoline-8-carboxamide] yielded a pIC50 [1] of 4.93 and a pIC50 [2] of 6.38.
CN(C(=O)c1ccc2nc(N)c3cnn(C)c3c2c1)[C@@H]1CCc2cc(-c3cnn(C)c3)ccc21 (single isomer, unassigned) [Example 623] showed a pIC50 [1] of 5.46 and a pIC50 [2] of 7.19.
In the case of CN(C(=O)c1cc2c3c(c(N)nc2cn1)COC3)[C@H]1COc2cc(Cl)c(Cl)cc21 [Example 210, 4-amino-N-((3R)-5,6-dichloro-2,3-dihydro-1-benzofuran-3-yl)-N-methyl-1,3-dihydrofuro[3,4-c][1,7]naphthyridine-8-carbox-amide], the pIC50 [1] was 4.60 and the pIC50 [2] was 5.63.
CC(=O)Nc1ccc(-c2ccc3c(c2)OC[C@H]3N(C)C(=O)c2ccc3nc(N)c4cnn(C)c4c3c2)cn1 [Example 647, N-((3S)-6-(6-acetamido-3-pyridinyl)-2,3-dihydro-1-benzofuran-3-yl)-4-amino-N,1-dimethyl-1H-pyrazolo[4,3-c]quinoline-8-carboxamide] was tested, and the pIC50 [1] was 6.24 and the pIC50 [2] was 8.10.
Work on CN(C(=O)c1ccc2nc(N)c3cnn(C)c3c2c1)[C@@H]1COc2cc(-c3cc(C(F)(F)F)[nH]n3)ccc21 [Example 645, 4-amino-N,1-dimethyl-N-((3S)-6-(5-(trifluoromethyl)-1H-pyrazol-3-yl)-2,3-dihydro-1-benzofuran-3-yl)-1H-pyrazolo[4,3-c]quinoline-8-carboxamide] yielded a pIC50 [1] of 5.83 and a pIC50 [2] of 7.62.
Work on CN(C(=O)c1cc2c(cc1F)nc(N)c1cnn(C)c12)[C@@H]1COCc2c(F)cncc21 (single isomer, unassigned) [Example 425] yielded a pIC50 [1] of 4.87 and a pIC50 [2] of 6.80.
Molecule C[C@H]1OCc2c1c(N)nc1ccc(C(=O)N(C)[C@H]3COCc4cc(Br)ccc43)cc21 (single isomer, unassigned) [Example 395] has a pIC50 [1] of 5.00 and a pIC50 [2] of 6.16.
In the case of CN(C(=O)c1cc2c3c(c(N)nc2cc1Cl)COC3)[C@H]1COc2nc(C(F)(F)F)ccc21 (single isomer, unassigned) [Example 563], the pIC50 [1] was 4.60 and the pIC50 [2] was 5.71.
CN(C(=O)c1ccc2nc(N)c3cnn(C)c3c2c1)[C@@H]1COc2cc(-c3ccc(S(F)(F)(F)(F)F)cc3)ccc21 [Example 668, 4-amino-N,1-dimethyl-N-((3S)-6-(4-(pentafluoro-lambda~6~- sulfanyl)phenyl)-2,3-dihydro-1-benzofuran-3-yl)-1H-pyrazolo[4,3-c]quinoline-8-carboxamide] gave a pIC50 [1] of 5.53 and a pIC50 [2] of 7.07.
In the case of Cc1cc2nc(N)c3cnn(C)c3c2cc1C(=O)N(C)[C@@H]1COCc2nc(C(F)(F)F)ccc21 [Example 297, 4-amino-N,1,7-trimethyl-N-((5S)-2-(trifluoromethyl)-5,8-dihydro-6H-pyrano[3,4-b]pyr-idin-5-yl)-1H-pyrazolo[4,3-c]-quinoline-8-carboxamide], the pIC50 [1] was 6.79 and the pIC50 [2] was 8.22.
